ChEMBL document CHEMBL6177933, “Discovery of Sophoridine α-Aryl Propionamide Derivative ZM600 as a Novel Antihepatic Fibrosis Agent” (J Med Chem, 2024)
The source made the active and inactive calls. No cut-off for these calls is given here.

Columns and labels:
RAW264.7 [1] = experiment: Inhibition of LPS-induced NFkappaB transcriptional activity in mouse RAW264.7 cells at 20 uM preincubated for 2 hrs followed by LPS stimulation and measured after 6 hrs by luciferase reporter gene assay relative to control; format: cell-based; conditions: time 8.0 hrs
LX-2 [2] = experiment: Inhibition of FBS-induced cell migration in human LX-2 cells assessed as reduction in wound healing measured after 24 hrs by scratch wound assay; format: functional, cell-based; conditions: dose 5-20 µM
RAW264.7 [3] = experiment: Antiinflammatory activity in mouse RAW264.7 cells assessed as inhibition of TGFbeta1-induced collagen 1 mRNA expression at 5 to 20 uM preincubated for 2 hrs […] and measured after 48 hrs by qRT-PCR analysis; format: functional, cell-based; conditions: dose 5-20 µM, time 50.0 hrs
Mus musculus [4] = experiment: Antifibrotic activity against CCL4-induced C57BL/6J mouse hepatic fibrosis model assessed as reduction in hard texture of liver at 15 to 30 mg/kg, po administered via gavage for 4 weeks starting from 5th week of CCL4 stimulation; format: functional, organism-based; conditions: dose 15-30 mg/kg
Mus musculus [5] = experiment: Antifibrotic activity against CCL4-induced C57BL/6J mouse hepatic fibrosis model assessed as reduction in liver edema at 15 to 30 mg/kg, po administered via gavage for 4 weeks starting from 5th week of CCL4 stimulation by H and E staining based histopathological analysis; format: functional, organism-based; conditions: dose 15-30 mg/kg
Mus musculus [6] = experiment: Antifibrotic activity against CCL4-induced C57BL/6J mouse hepatic fibrosis model assessed as reduction in alphaSMA expression in liver at 15 to 30 mg/kg, po administered via gavage for 4 weeks starting from 5th week of CCL4 stimulation by immunohistochemical staining based assay; format: functional, organism-based; conditions: dose 15-30 mg/kg
Mus musculus [7] = experiment: Antifibrotic activity against CCL4-induced C57BL/6J mouse hepatic fibrosis model assessed as reduction in alphaSMA expression in liver at 15 to 30 mg/kg, po administered via gavage for 4 weeks starting from 5th week of CCL4 stimulation by Western blot analysis; format: functional, organism-based; conditions: dose 15-30 mg/kg
Mus musculus [8] = experiment: Antifibrotic activity against CCL4-induced C57BL/6J mouse hepatic fibrosis model assessed as reduction in collagen 1 expression in liver at 15 to 30 mg/kg, po administered via gavage for 4 weeks starting from 5th week of CCL4 stimulation by Western blot analysis; format: functional, organism-based; conditions: dose 15-30 mg/kg
Mus musculus [9] = experiment: Antifibrotic activity against BDL-induced C57BL/6J mouse hepatic fibrosis model assessed as improvement in histological changes at 15 to 30 mg/kg, po administered via gavage starting from 3 days post-BDL; format: functional, organism-based; conditions: dose 15-30 mg/kg
Mus musculus [10] = experiment: Antifibrotic activity against BDL-induced C57BL/6J mouse hepatic fibrosis model assessed as improvement in histological changes at 15 to 30 mg/kg, po administered via gavage starting from 3 days post-BDL by H and E staining based assay; format: functional, organism-based; conditions: dose 15-30 mg/kg
Mus musculus [11] = experiment: Antifibrotic activity against BDL-induced C57BL/6J mouse hepatic fibrosis model assessed as reduction in collagen deposition in liver at 15 to 30 mg/kg, po administered via gavage starting from 3 days post-BDL by Sirius Red and Masson staining based assay; format: functional, organism-based; conditions: dose 15-30 mg/kg
Mus musculus [12] = experiment: Antifibrotic activity against BDL-induced C57BL/6J mouse hepatic fibrosis model assessed as reduction in alphaSMA expression in liver at 15 to 30 mg/kg, po administered via gavage starting from 3 days post-BDL by Western blot analysis; format: functional, organism-based; conditions: dose 15-30 mg/kg
Mus musculus [13] = experiment: Antifibrotic activity against BDL-induced C57BL/6J mouse hepatic fibrosis model assessed as reduction in collagen 1 expression in liver at 15 to 30 mg/kg, po administered via gavage starting from 3 days post-BDL by Western blot analysis; format: functional, organism-based; conditions: dose 15-30 mg/kg
Mus musculus [14] = experiment: Antifibrotic activity against BDL-induced C57BL/6J mouse hepatic fibrosis model assessed as reduction in collagen 1 mRNA expression in liver at 15 to 30 mg/kg, po administered via gavage starting from 3 days post-BDL by qRT-PCR analysis; format: functional, organism-based; conditions: dose 15-30 mg/kg
LX-2 [15] = experiment: Inhibition of TGFbeta1-induced AKT phosphorylation in human LX-2 cells preincubated for 2 hrs followed by […] stimulation and measured after 2 hrs by Western blot analysis; format: cell-based; conditions: dose 5-20 µM, time 4.0 hrs
[16] = biological target: MAP kinase p38 (Homo sapiens) (UniProt O15264+Q15759+Q16539+P53778); experiment: Inhibition of TGFbeta1-induced p38 phosphorylation in human LX-2 cells at 5 to 20 uM preincubated for 2 hrs followed by […] stimulation and measured after 2 hrs by Western blot analysis; format: cell-based; conditions: dose 5-20 µM, time 4.0 hrs
[17] = biological target: c-Jun N-terminal kinase, JNK (Homo sapiens) (UniProt P45983+P53779+P45984); experiment: Inhibition of TGFbeta1-induced JNK phosphorylation in human LX-2 cells at 5 to 20 uM preincubated for 2 hrs followed by […] stimulation and measured after 2 hrs by Western blot analysis; format: cell-based; conditions: dose 5-20 µM, time 4.0 hrs
Mus musculus [18] = experiment: In vivo inhibition of p65 phosphorylation in CCL4-induced C57BL/6J mouse hepatic fibrosis model at 15 to 30 mg/kg, po administered via gavage for 4 weeks starting from 5th week of CCL4 stimulation by Western blot analysis; format: functional, organism-based; conditions: dose 15-30 mg/kg
Mus musculus [19] = experiment: In vivo inhibition of Smad2 phosphorylation in CCL4-induced C57BL/6J mouse hepatic fibrosis model at 15 to 30 mg/kg, po administered via gavage for 4 weeks starting from 5th week of CCL4 stimulation by Western blot analysis; format: functional, organism-based; conditions: dose 15-30 mg/kg
Mus musculus [20] = experiment: In vivo inhibition of AKT phosphorylation in CCL4-induced C57BL/6J mouse hepatic fibrosis model at 15 to 30 mg/kg, po administered via gavage for 4 weeks starting from 5th week of CCL4 stimulation by Western blot analysis; format: functional, organism-based; conditions: dose 15-30 mg/kg
Mus musculus [21] = experiment: In vivo inhibition of JNK phosphorylation in CCL4-induced C57BL/6J mouse hepatic fibrosis model at 15 to 30 mg/kg, po administered via gavage for 4 weeks starting from 5th week of CCL4 stimulation by Western blot analysis; format: functional, organism-based; conditions: dose 15-30 mg/kg
Mus musculus [22] = experiment: In vivo inhibition of ERK1/2 phosphorylation in CCL4-induced C57BL/6J mouse hepatic fibrosis model at 15 to 30 mg/kg, po administered via gavage for 4 weeks starting from 5th week of CCL4 stimulation by Western blot analysis; format: functional, organism-based; conditions: dose 15-30 mg/kg
Mus musculus [23] = experiment: In vivo inhibition of p65 phosphorylation in BDL-induced C57BL/6J mouse hepatic fibrosis model at 15 to 30 mg/kg, po administered via gavage starting from 3 days post-BDL by Western blot analysis; format: functional, organism-based; conditions: dose 15-30 mg/kg
Mus musculus [24] = experiment: In vivo inhibition of Smad2 phosphorylation in BDL-induced C57BL/6J mouse hepatic fibrosis model at 15 to 30 mg/kg, po administered via gavage starting from 3 days post-BDL by Western blot analysis; format: functional, organism-based; conditions: dose 15-30 mg/kg
Mus musculus [25] = experiment: In vivo inhibition of Smad3 phosphorylation in BDL-induced C57BL/6J mouse hepatic fibrosis model at 15 to 30 mg/kg, po administered via gavage starting from 3 days post-BDL by Western blot analysis; format: functional, organism-based; conditions: dose 15-30 mg/kg
Mus musculus [26] = experiment: In vivo inhibition of AKT phosphorylation in BDL-induced C57BL/6J mouse hepatic fibrosis model at 15 to 30 mg/kg, po administered via gavage starting from 3 days post-BDL by Western blot analysis; format: functional, organism-based; conditions: dose 15-30 mg/kg
Mus musculus [27] = experiment: In vivo inhibition of JNK phosphorylation in BDL-induced C57BL/6J mouse hepatic fibrosis model at 15 to 30 mg/kg, po administered via gavage starting from 3 days post-BDL by Western blot analysis; format: functional, organism-based; conditions: dose 15-30 mg/kg

COC(=O)CCC[C@@H]1[C@H]2CCCN3CCC[C@H](CN1C(=O)C(C)c1ccc(-c4ccccc4)c(F)c1)[C@@H]23 (some centres not stated)
fold change (FC) (RAW264.7 [1]): 0.59
inhibition (LX-2 [2]): Dose-dependent-effect
inhibition (RAW264.7 [3]): Active
Activity (Mus musculus [4]): Active; Significant Alleviation Observed
Activity (Mus musculus [5]): Active
Activity (Mus musculus [6]): Active
Activity (Mus musculus [7]): Active
Activity (Mus musculus [8]): Active
Activity (Mus musculus [9]): Active
Activity (Mus musculus [10]): Active
Activity (Mus musculus [11]): Active
Activity (Mus musculus [12]): Active
Activity (Mus musculus [13]): Active
Activity (Mus musculus [14]): Active
inhibition (LX-2 [15]): Dose-dependent-effect
inhibition [16]: inactive
inhibition [17]: inactive
inhibition (Mus musculus [18]): Active
inhibition (Mus musculus [19]): Active
inhibition (Mus musculus [20]): Active
inhibition (Mus musculus [21]): inactive
inhibition (Mus musculus [22]): inactive
inhibition (Mus musculus [23]): Active
inhibition (Mus musculus [24]): Active
inhibition (Mus musculus [25]): Active
inhibition (Mus musculus [26]): Active
inhibition (Mus musculus [27]): inactive
